Source: US12134617B1, “Pyrimido[1′6′:1,5]pyrazolo[4,3-c][1,7]naphthyridines as CK2 inhibitors” (KING FAISAL UNIVERSITY, priority 2024, dated 2024)

Tests used:
[1] = tested on: A375 (melanoma); test: In vitro cytotoxic activity (MTT) assay, A375; assay type: cell-based; settings: Homo sapiens, A-375; A375 cells, exposed for 96 hours, 50% inhibition of cell proliferation; read-out: Cytotoxicity activity IC50, A375 (melanoma)
Description: (§1) In Vitro Cytotoxic Activity Assay
(§2) Compounds 1-16 were screened for their in vitro cytotoxic activity utilizing a 3-(4,5-dimethyl-thiazol-2-yl)-2,5-diphenyltetrazolium bromide (MTT) assay against selected cancer human cell lines consisting of PC3 (prostate), HCT116 (colon), A375 (melanoma), H1299 (lung), MIAPaCa-2 (pancreas), HL60 (leukemia), MCF7 (breast), MDA-MB-231 (breast) (T. Mosmann, J. Immunol. Meth., 1983, 65, 55-63). The cells were cultured at 37° C. in RMPI1640 medium supplemented with 10% fetal bovine serum, 50 IU/mL penicillin, and 50 μg/mL streptomycin in a 5% CO2 incubator. All cells were sub-cultured 3 times/week by trypsinisation. Viable cells were seeded and allowed to adhere for 12 hours before a test drug was added in 96-well plates at an initial density of 1.0×10^5 cells/mL. Tumor cell lines were separately exposed to various concentrations of the tested compounds followed by incubation at a temperature of 37° C. during 96 hours inside a medium of fresh RMPI 1640. Cells were subsequently incubated at 37° C. using MTT at 0.5 mg/mL during 4 hours. After removal of supernatant, formazan crystals were dissolved in isopropanol and the optical density was measured at 570 nm. CX-4945 was used as a positive control.

[2] = tested on: HL60 (leukemia); test: In vitro cytotoxic activity (MTT) assay, HL60; assay type: cell-based; settings: Homo sapiens, HL-60; HL60 cells, exposed for 96 hours, 50% inhibition of cell proliferation; read-out: Cytotoxicity activity IC50, HL60 (leukemia)
Description: as §1, §2

[3] = biological target: T1, recombinant human CK2 (RRββ-holoenzyme) (Homo sapiens, UniProt P68400); test: CK2 Kinase Assay (33P-ATP, filter plate); assay type: biochemical; settings: recombinant human CK2, final ATP concentration 15 μM, 10 min at 30° C.; read-out: protein kinase CK2 IC50
T1 construct: purchased Millipore
T1 sequence (P68400 whole entry): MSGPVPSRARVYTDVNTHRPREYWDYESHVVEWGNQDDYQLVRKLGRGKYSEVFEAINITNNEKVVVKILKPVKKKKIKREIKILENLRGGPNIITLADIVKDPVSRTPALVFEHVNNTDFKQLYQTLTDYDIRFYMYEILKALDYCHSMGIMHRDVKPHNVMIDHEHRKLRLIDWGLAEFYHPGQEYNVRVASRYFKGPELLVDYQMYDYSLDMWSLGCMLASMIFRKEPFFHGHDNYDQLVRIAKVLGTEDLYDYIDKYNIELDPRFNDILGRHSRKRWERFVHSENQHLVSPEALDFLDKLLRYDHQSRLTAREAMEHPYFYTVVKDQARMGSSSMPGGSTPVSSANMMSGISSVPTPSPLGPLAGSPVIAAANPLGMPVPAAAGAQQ
T1 sequence (P67870 whole entry partner): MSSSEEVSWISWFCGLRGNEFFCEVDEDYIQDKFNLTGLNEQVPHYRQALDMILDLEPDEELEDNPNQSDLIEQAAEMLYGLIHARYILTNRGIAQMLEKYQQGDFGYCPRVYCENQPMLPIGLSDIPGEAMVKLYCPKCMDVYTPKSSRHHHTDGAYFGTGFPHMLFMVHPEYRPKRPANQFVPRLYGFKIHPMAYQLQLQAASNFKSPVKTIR
Description: Evaluation of Inhibitory Activity on Protein Kinase CK2
CK2 Kinase Assay was conducted using the protocol as described in Pierre F. et al; J. Med. Chem. 2011, 54, 635-654. The tested compounds in aqueous solution were added at a volume of 10 μL to a reaction mixture comprising 10 μL of assay dilution buffer (ADB; 20 mM MOPS, pH 7.2, 25 mM β-glycerol phosphate, 5 mM EGTA, 1 mM sodium orthovanadate, and 1 mM dithiothreitol), 10 μL of substrate peptide (RRRDDDSDDD, dissolved in ADB at a concentration of 1 mM), 10 μL of recombinant human CK2 (RRββ-holoenzyme, 25 ng dissolved in ADB; Millipore). Reactions were initiated by the addition of 10 μL of ATP solution (90% 75 mMMgCl2, 75 μM ATP (final ATP concentration: 15 μM) dissolved in ADB; 10% [γ-33P] ATP (stock 1mCi/100 μL; 3000 Ci/mmol (Perkin-Elmer) and maintained for 10 min at 30° C. The reactions were quenched with 100 μL of 0.75% phosphoric acid and then transferred to and filtered through a phosphor cellulose filter plate (Millipore). After washing each well five times with 0.75% phosphoric acid, the plate was dried under vacuum for 5 min and, following the addition of 15 μL of scintillation fluid to each well, the residual radioactivity was measured using a Wallac luminescence counter. The IC50 values were derived from eight concentrations of test inhibitors.

[4] = tested on: MIAPaCa-2 (pancreas); test: In vitro cytotoxic activity (MTT) assay, MIAPaCa-2; assay type: cell-based; settings: Homo sapiens, MIA PaCa-2; MIAPaCa-2 cells, exposed for 96 hours, 50% inhibition of cell proliferation; read-out: Cytotoxicity activity IC50, MIAPaCa-2 (pancreas)
Description: as §1, §2

[5] = tested on: MDA-MB-231 (breast); test: In vitro cytotoxic activity (MTT) assay, MDA-MB-231; assay type: cell-based; settings: Homo sapiens; MDA-MB-231 cells, exposed for 96 hours, 50% inhibition of cell proliferation; read-out: Cytotoxicity activity IC50, MDA-MB-231 (breast)
Description: as §1, §2

[6] = tested on: MCF7 (breast); test: In vitro cytotoxic activity (MTT) assay, MCF7; assay type: cell-based; settings: Homo sapiens; MCF7 cells, exposed for 96 hours, 50% inhibition of cell proliferation; read-out: Cytotoxicity activity IC50, MCF7 (breast)
Description: as §1, §2

[7] = tested on: H1299 (lung); test: In vitro cytotoxic activity (MTT) assay, H1299; assay type: cell-based; settings: Homo sapiens, NCI-H1299; H1299 cells, exposed for 96 hours, 50% inhibition of cell proliferation; read-out: Cytotoxicity activity IC50, H1299 (lung)
Description: as §1, §2

[8] = tested on: PC3 (prostate); test: In vitro cytotoxic activity (MTT) assay, PC3; assay type: cell-based; settings: Homo sapiens, PC-3; PC3 cells, exposed for 96 hours, 50% inhibition of cell proliferation; read-out: Cytotoxicity activity IC50, PC3 (prostate)
Description: as §1, §2

[9] = tested on: HCT116 (colon); test: In vitro cytotoxic activity (MTT) assay, HCT116; assay type: cell-based; settings: Homo sapiens, HCT-116; HCT116 cells, exposed for 96 hours, 50% inhibition of cell proliferation; read-out: Cytotoxicity activity IC50, HCT116 (colon)
Description: as §1, §2

- IC50 [3]: 0.047 µM
Compound: Clc1cccc(Nc2nc3cnccc3c3nn4cnccc4c23)c1 [Compound 1, N-(3-chlorophenyl)pyrimido[1′,6′:1,5]pyrazolo[4,3-c][1,7]naphthyridin-6-amine]
- IC50 [1]: 3.2 µM
- IC50 [2]: 4.4 µM
- IC50 [4]: 1.3 µM
- IC50 [5]: 4.8 µM
- IC50 [6]: 5.7 µM
- IC50 [7]: 2.6 µM
- IC50 [8]: 1.7 µM
- IC50 [9]: 1.5 µM
